Assay results from ChEMBL document CHEMBL1132149, “Potent bivalent thrombin inhibitors: replacement of the scissile peptide bond at P(1)-P(1)' with arginyl ketomethylene isosteres” (J Med Chem, 1999).

Target: Prothrombin (Homo sapiens, UniProt P00734)
Assay: Inhibitory constant against thrombin

| Ki [pM] | Structure (SMILES) |
| --- | --- |
| 0.87 | CC[C@@H](C)[C@H](NC(=O)[C@@H]1CCCN1C(=O)[C@H](CCC(=O)O)NC(=O)[C@H](Cc1ccc(O)cc1)NC(=O)[C@H](CC(=O)O)NC(=O)CNC(=O)[C@H](CC(N)=O)NC(=O)CNC(=O)CNC(=O)CNC(=O)CNC(=O)CN(C)CC(=O)[C@H](CCCNC(=N)N)NC(=O)[C@@H]1CCCN1C(=O)[C@H](N)CC1CCCCC1)C(=O)N1CCC[C@H]1C(=O)N[C@@H](CCC(=O)O)C(=O)N[C@@H](CCC(=O)O)C(=O)N[C@@H](C)C(=O)N[C@@H](CC1CCCCC1)C(=O)N[C@H](CCC(=O)O)C(=O)O |
| 1.5 | CC[C@@H](C)[C@H](NC(=O)[C@@H]1CCCN1C(=O)[C@H](CCC(=O)O)NC(=O)[C@H](Cc1ccc(O)cc1)NC(=O)[C@H](CC(=O)O)NC(=O)CNC(=O)CNC(=O)CNC(=O)CNC(=O)[C@H](C)NCC(=O)[C@H](CCCN=C(N)N)NC(=O)[C@@H]1CCCN1C(=O)[C@H](N)CC1CCCCC1)C(=O)N1CCC[C@H]1C(=O)N[C@@H](CCC(=O)O)C(=O)N[C@@H](CCC(=O)O)C(=O)N[C@@H](Cc1ccc(O)cc1)C(=O)N[C@@H](CC1CCCCC1)C(=O)N[C@@H](CC(=O)O)C(=O)O |
| 83 | CC[C@@H](C)[C@H](NC(=O)[C@H](CCC(=O)O)NC(=O)[C@H](CCC(=O)O)NC(=O)[C@H](Cc1ccccc1)NC(=O)[C@H](CC(=O)O)NC(=O)CNC(=O)CNC(=O)CNC(=O)CNC(=O)CN(C)CC(=O)[C@H](CCCNC(=N)N)NC(=O)[C@@H]1CCCN1C(=O)[C@H](N)Cc1ccccc1)C(=O)N1CCC[C@H]1C(=O)N[C@@H](CCC(=O)O)C(=O)N[C@@H](CCC(=O)O)C(=O)N[C@@H](Cc1ccc(O)cc1)C(=O)N[C@@H](CC(C)C)C(=O)N[C@@H](CCC(N)=O)C(=O)O |
| 35 | CC[C@@H](C)[C@H](NC(=O)[C@@H]1CCCN1C(=O)[C@H](CCC(=O)O)NC(=O)[C@H](Cc1ccc(O)cc1)NC(=O)[C@H](CC(=O)O)NC(=O)CNC(=O)CNC(=O)CNC(=O)CNC(=O)CN(C)CC(=O)[C@H](CCCNC(=N)N)NC(=O)[C@@H]1CCCN1C(=O)[C@H](N)Cc1ccccc1)C(=O)N1CCC[C@H]1C(=O)N[C@@H](CCC(=O)O)C(=O)N[C@@H](CCC(=O)O)C(=O)N[C@@H](Cc1ccc(O)cc1)C(=O)N[C@@H](CC1CCCCC1)C(=O)N[C@@H](CC(=O)O)C(=O)O |
| 1060 | CC[C@@H](C)[C@H](NC(=O)[C@H](CCC(=O)O)NC(=O)[C@H](CCC(=O)O)NC(=O)[C@H](Cc1ccccc1)NC(=O)[C@H](CC(=O)O)NC(=O)CNC(=O)CNC(=O)CNC(=O)CNC(=O)CSCC(=O)[C@H](CCCNC(=N)N)NC(=O)[C@@H]1CCCN1C(=O)[C@@H](Cc1ccccc1)NC(C)=O)C(=O)N1CCC[C@H]1C(=O)N[C@@H](CCC(=O)O)C(=O)N[C@@H](CCC(=O)O)C(=O)N[C@@H](Cc1ccc(O)cc1)C(=O)N[C@@H](CC(C)C)C(=O)N[C@@H](CCC(N)=O)C(=O)O |
| 1.7 | CC[C@@H](C)[C@H](NC(=O)[C@@H]1CCCN1C(=O)[C@H](CCC(=O)O)NC(=O)[C@H](Cc1ccc(O)cc1)NC(=O)[C@H](CC(=O)O)NC(=O)CNC(=O)CNC(=O)CNC(=O)CNC(=O)CN(CC(=O)[C@H](CCCN=C(N)N)NC(=O)[C@@H]1CCCN1C(=O)[C@H](N)CC1CCCCC1)C(C)=O)C(=O)N1CCC[C@H]1C(=O)N[C@@H](CCC(=O)O)C(=O)N[C@@H](CCC(=O)O)C(=O)N[C@@H](Cc1ccc(O)cc1)C(=O)N[C@@H](CC1CCCCC1)C(=O)N[C@@H](CC(=O)O)C(=O)O |
| 7300 | CC[C@@H](C)[C@H](NC(=O)[C@H](CCC(=O)O)NC(=O)[C@H](CCC(=O)O)NC(=O)[C@H](Cc1ccccc1)NC(=O)[C@H](CC(=O)O)NC(=O)CNC(=O)CCCCCNC(=O)CNCC(=O)NCC(=O)[C@H](CCCNC(=N)N)NC(=O)[C@@H]1CCCN1C(=O)[C@H](N)Cc1ccccc1)C(=O)N1CCC[C@H]1C(=O)N[C@@H](CCC(=O)O)C(=O)N[C@@H](CCC(=O)O)C(=O)N[C@@H](Cc1ccc(O)cc1)C(=O)N[C@@H](CC(C)C)C(=O)N[C@@H](CCC(N)=O)C(=O)O |
| 9.4 | CC[C@@H](C)[C@H](NC(=O)[C@H](CCC(=O)O)NC(=O)[C@H](CCC(=O)O)NC(=O)[C@H](Cc1ccccc1)NC(=O)[C@H](CC(=O)O)NC(=O)CNC(=O)CNC(=O)CNC(=O)CNC(=O)CSCC(=O)[C@H](CCCN=C(N)N)NC(=O)[C@@H]1CCCN1C(=O)[C@H](N)Cc1ccccc1)C(=O)N1CCC[C@H]1C(=O)N[C@@H](CCC(=O)O)C(=O)N[C@@H](CCC(=O)O)C(=O)N[C@@H](Cc1ccc(O)cc1)C(=O)N[C@@H](CC(C)C)C(=O)N[C@@H](CCC(N)=O)C(=O)O |
| 0.35 | CC[C@@H](C)[C@H](NC(=O)[C@@H]1CCCN1C(=O)[C@H](CCC(=O)O)NC(=O)[C@H](Cc1ccc(O)cc1)NC(=O)[C@H](CC(=O)O)NC(=O)CNC(=O)CNC(=O)CNC(=O)CNC(=O)CSCC(=O)[C@H](CCCN=C(N)N)NC(=O)[C@@H]1CCCN1C(=O)[C@H](N)CC1CCCCC1)C(=O)N1CCC[C@H]1C(=O)N[C@@H](CCC(=O)O)C(=O)N[C@@H](CCC(=O)O)C(=O)N[C@@H](C)C(=O)N[C@@H](CC1CCCCC1)C(=O)N[C@H](CCC(N)=O)C(=O)O |
| 2 | CC[C@@H](C)[C@H](NC(=O)[C@@H]1CCCN1C(=O)[C@H](CCC(=O)O)NC(=O)[C@H](Cc1ccc(O)cc1)NC(=O)[C@H](CC(=O)O)NC(=O)CNC(=O)CNC(=O)CNC(=O)CNC(=O)CN(C)CC(=O)[C@H](CCCNC(=N)N)NC(=O)[C@@H]1CCCN1C(=O)[C@H](N)CC1CCCCC1)C(=O)N1CCC[C@H]1C(=O)N[C@@H](CCC(=O)O)C(=O)N[C@@H](CCC(=O)O)C(=O)N[C@@H](Cc1ccc(O)cc1)C(=O)N[C@@H](CC1CCCCC1)C(=O)N[C@@H](CC(=O)O)C(=O)O |
| 5.7 | CC[C@@H](C)[C@H](NC(=O)[C@@H]1CCCN1C(=O)[C@H](CCC(=O)O)NC(=O)[C@H](Cc1ccc(O)cc1)NC(=O)[C@H](CC(=O)O)NC(=O)CNC(=O)[C@H](CC(N)=O)NC(=O)CNC(=O)CNC(=O)CNC(=O)CN[C@@H]1CCCN1CC(=O)[C@H](CCCN=C(N)N)NC(=O)[C@@H]1CCCN1C(=O)[C@H](N)CC1CCCCC1)C(=O)N1CCC[C@H]1C(=O)N[C@@H](CCC(=O)O)C(=O)N[C@@H](CCC(=O)O)C(=O)N[C@@H](C)C(=O)N[C@@H](CC1CCCCC1)C(=O)N[C@H](CCC(=O)O)C(=O)O |
